According to PubChem BioAssay (NCI):
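Five concentrations, 48 hours, 96-well plates. Definition used: TGI = concentration required for complete inhibition of growth.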

Experiments:
Assay in all cases: NCI tumour cell line growth inhibition, 48 h
[1] = test system: UACC-62 melanoma
[2] = test system: HCT-15 colon
[3] = test system: LOX IMVI melanoma
[4] = test system: MOLT-4 leukemia
[5] = test system: HCC-2998 colon
[6] = test system: KM12 colon
[7] = test system: EKVX NSCLC
[8] = test system: SK-OV-3 ovarian
[9] = test system: A498 renal
[10] = test system: SK-MEL-2 melanoma

`CC(C)(C)OC(=O)NCCCCC1NC(=O)[C@@H]2Cc3c([nH]c4ccccc34)C(C3CCCCC3)N2C1=O` (stereo not given in full) was tested, and the TGI [1] was over 100 µM, the TGI [2] was over 100 µM and the TGI [3] was over 100 µM. The TGI [4] was 44.9 µM, the TGI [5] was 67.3 µM and the TGI [6] was over 100 µM. The TGI [7] was over 100 µM, the TGI [8] was over 100 µM and the TGI [9] was over 100 µM. The TGI [10] was over 100 µM.
For `CCOC(=O)c1csc(NC(=O)CN2CCOCC2)n1`, the TGI [1] was over 100 µM, the TGI [2] was over 100 µM and the TGI [3] was over 100 µM. The TGI [4] was 48.5 µM, the TGI [5] was over 100 µM and the TGI [6] was over 100 µM. It also gave a TGI [7] of over 100 µM, a TGI [8] of over 100 µM and a TGI [9] of over 100 µM. For the same molecule, the TGI [10] was over 100 µM.
For `CC(=O)O[C@@H]1[C@H](C(C)C)[C@@H](OC(C)=O)C/C(C)=C/CC[C@]2(C)O[C@@H]12`, the TGI [1] was over 100 µM, the TGI [2] was over 100 µM and the TGI [3] was over 100 µM. The TGI [4] was over 100 µM, the TGI [5] was over 100 µM and the TGI [6] was over 100 µM. The TGI [7] was over 100 µM, the TGI [8] was over 100 µM and the TGI [9] was over 100 µM. For the same molecule, the TGI [10] was over 100 µM.
For `COc1ccc(-c2c(C#N)c(-c3ccc(C)cc3)n(NS(=O)(=O)c3ccc(C)cc3)c(=O)c2C#N)cc1`, the TGI [1] was over 100 µM, the TGI [2] was over 100 µM and the TGI [3] was over 100 µM. For the same molecule, the TGI [4] was 57.4 µM, the TGI [5] was over 100 µM and the TGI [6] was over 100 µM. For the same molecule, the TGI [7] was over 100 µM, the TGI [8] was over 100 µM and the TGI [9] was over 100 µM. The TGI [10] was over 100 µM.
With `O=C1CC(NC(=O)C(F)(F)F)c2c(Br)sc(N3CCNCC3)c21` (stereo not given) the TGI [1] was over 100 µM, the TGI [2] was over 100 µM and the TGI [3] was over 100 µM. The TGI [4] was over 100 µM, the TGI [5] was over 100 µM and the TGI [6] was over 100 µM. For the same molecule, the TGI [7] was over 100 µM, the TGI [8] was over 100 µM and the TGI [9] was over 100 µM. For the same molecule, the TGI [10] was over 100 µM.
With `C#CCNC(CS)C(=O)O` (stereo not given) the TGI [1] was over 100 µM, the TGI [2] was over 100 µM and the TGI [3] was over 100 µM. For the same molecule, the TGI [4] was over 100 µM, the TGI [5] was over 100 µM and the TGI [6] was over 100 µM. It also gave a TGI [7] of over 100 µM, a TGI [8] of over 100 µM and a TGI [9] of over 100 µM. For the same molecule, the TGI [10] was over 100 µM.
For `COc1cc2nc3n(c(=O)c2cc1OC)-c1ccc([N+](=O)[O-])cc1C3=O`, the TGI [1] was over 100 µM, the TGI [2] was over 100 µM and the TGI [3] was over 100 µM. It also gave a TGI [4] of over 100 µM, a TGI [5] of over 100 µM and a TGI [6] of over 100 µM. It also gave a TGI [7] of over 100 µM, a TGI [8] of over 100 µM and a TGI [9] of 78.6 µM. The TGI [10] was over 100 µM.
Molecule `CCCCCCc1cc2cc(-c3csc(CC#N)n3)c(=O)oc2cc1O` has a TGI [1] of over 100 µM, a TGI [2] of over 100 µM and a TGI [3] of over 100 µM. It also gave a TGI [4] of over 100 µM, a TGI [5] of over 100 µM and a TGI [6] of over 100 µM. It also gave a TGI [7] of over 100 µM, a TGI [8] of 97.6 µM and a TGI [9] of over 100 µM. It also gave a TGI [10] of over 100 µM.
`CCCN(C(=O)c1ccccc1)C(C#N)c1ccc(C(C#N)N(CCC)C(=O)c2ccccc2)cc1` (stereo not given) was tested, and the TGI [1] was over 100 µM, the TGI [2] was over 100 µM and the TGI [3] was over 100 µM. It also gave a TGI [4] of over 100 µM, a TGI [5] of over 100 µM and a TGI [6] of over 100 µM. The TGI [7] was over 100 µM, the TGI [8] was over 100 µM and the TGI [9] was over 100 µM. The TGI [10] was over 100 µM.
For `Cc1nc2n(c1/C=C1/C(=O)Nc3cccc(Cl)c31)CCS2`, the TGI [1] was over 100 µM, the TGI [2] was over 100 µM and the TGI [3] was over 100 µM. The TGI [4] was over 100 µM, the TGI [5] was over 100 µM and the TGI [6] was over 100 µM. It also gave a TGI [7] of over 100 µM, a TGI [8] of 35.1 µM and a TGI [9] of over 100 µM. For the same molecule, the TGI [10] was 51.8 µM.
`C=CC1(C)CCC2C(=CCC3C2(C)CC(O)C(O)C3(C)COC2OC(C(=O)O)C(O)C(O)C2O)C1` (stereo not given) (tested in a mixture with another compound) gave a TGI [1] of over 100 µM, a TGI [2] of over 100 µM and a TGI [3] of over 100 µM. It also gave a TGI [4] of over 100 µM, a TGI [5] of over 100 µM and a TGI [6] of over 100 µM. For the same molecule, the TGI [7] was over 100 µM, the TGI [8] was over 100 µM and the TGI [9] was over 100 µM. It also gave a TGI [10] of over 100 µM.
With `O=C1CCCc2cc3c(cc21)CC1(Cc2ccccc2C1)C3` the TGI [1] was over 100 µM, the TGI [2] was 24.4 µM and the TGI [3] was 28.6 µM. The TGI [4] was 19.3 µM, the TGI [5] was 39.3 µM and the TGI [6] was 13.7 µM. For the same molecule, the TGI [7] was over 100 µM, the TGI [8] was 97.3 µM and the TGI [9] was 67 µM. For the same molecule, the TGI [10] was over 100 µM.
`c1csc(-c2ccc(-c3cccc4nsnc34)s2)c1` was tested, and the TGI [1] was over 100 µM, the TGI [2] was over 100 µM and the TGI [3] was over 100 µM. It also gave a TGI [4] of 39.2 µM, a TGI [5] of over 100 µM and a TGI [6] of over 100 µM. It also gave a TGI [7] of over 100 µM, a TGI [8] of over 100 µM and a TGI [9] of over 100 µM. For the same molecule, the TGI [10] was over 100 µM.
For `O=C1CCCSC(=O)N1Cc1ccccc1`, the TGI [1] was over 100 µM, the TGI [2] was over 100 µM and the TGI [3] was over 100 µM. It also gave a TGI [4] of over 100 µM, a TGI [5] of over 100 µM and a TGI [6] of over 100 µM. The TGI [7] was over 100 µM, the TGI [8] was over 100 µM and the TGI [9] was over 100 µM. It also gave a TGI [10] of over 100 µM.
With `C=C1C(=O)O[C@@H]2C(=O)[C@@H](C)CCC/C(C)=C/CC[C@@]3(C)O[C@@H]3C[C@@H]12` the TGI [1] was over 100 µM, the TGI [2] was 44 µM and the TGI [3] was 36.9 µM. The TGI [4] was over 100 µM, the TGI [5] was over 100 µM and the TGI [6] was over 100 µM. For the same molecule, the TGI [7] was over 100 µM, the TGI [8] was over 100 µM and the TGI [9] was over 100 µM. The TGI [10] was over 100 µM.
Work on `CN(C)C(=O)O/N=C1/C(c2c(O)[nH]c3ccccc23)=Nc2ccccc21` yielded a TGI [1] of 98.6 µM, a TGI [2] of over 100 µM and a TGI [3] of over 100 µM. It also gave a TGI [4] of 41.5 µM, a TGI [5] of over 100 µM and a TGI [6] of over 100 µM. The TGI [7] was 33.5 µM, the TGI [8] was 48.8 µM and the TGI [9] was 18.1 µM. It also gave a TGI [10] of 33.4 µM.
